Source: US20240327829A1, “CONJUGATE OF SAPONIN, OLIGONUCLEOTIDE AND GALNAC” (priority 2020, published 2024)
Read-outs that look alike come from different tables or passages of the source. [BNA] = bridged nucleic acid (BNA) nucleotide, BNA type not stated for this oligo; [BNANC] = BNA^NC (2'-O,4'-aminoethylene bridged) nucleotide; {C6SH} = thiol C6 linker; d = 2'-deoxy (DNA)

Assays:
[1] = test system: apoB protein expression in Huh7 cells; assay: apoB protein expression in Huh7 hepatocyte cell line; assay type: cell-based, human
[2] = test system: apoB gene expression in Huh7 cells; assay: ApoB gene silencing (gene expression analysis); assay type: cell-based, human; settings: for IC50: + fixed 4000 nM trivalent-GalNAc-L-SO1861 (DAR1)
Experimental: (§1) RNA from cells was isolated and analysed according to standard protocols (Biorad). qPCR primers that were used are indicated in Table A2.
(§2) RNA isolation and gene expression analysis from primary mouse and human hepatocytes RNA from cells was isolated using TRI Reagent® Solution (Thermo Scientific) according to the manufacturer's instruction. Conversion into cDNA was performed using iScript™ cDNA Synthesis Kit (BioRad) using standard protocols. ApoB expression levels and levels of specific hepatocyte housekeeping genes were determined using quantitative real-time PCR assays (qRT-PCR) using iTaq™ Universal SYBR® Green Supermix (BioRad) and the Light Cycler 480 (Roche Diagnostics, Rotkreuz, Switzerland) with specific DNA primers, listed in Table A4 (study A) and Table A7 (study B), respectively. Analysis was done by the […] to determine apoB expression relative to 2 hepatocyte-specific housekeeping control mRNAs. Each analysis reaction was performed in triplicate.

[3] = Endosomal escape enhancing activity of saponin; settings: compared with SO1861
LDL-cholesterol = assay: Serum LDL-cholesterol (LDL-C) analysis; assay type: in vivo, C57BL/6J mice; settings: for serum LDL-C reduction compared to vehicle: Study A
Experimental: (§3) • i. Dose administration and in-life phase. Per group, 8 C57BL/6J male mice for treatment groups (in Study A, 14 mice in vehicle control group), approximately 6-7 weeks at arrival and 8-9 weeks at dosing, were dosed. The compounds, formulated in PBS or PBS alone (vehicle) according to Table A5 and Table A6, were dosed at 5 ml/kg in the tail vain (intravenously, iv), with dose volumes corresponding to the individual bodyweights. Where applicable, trivalent (GalNAc)3-SO1861 (EMCH) was co-administered at 5 ml/kg in the tail vain (iv) right after the trivalent GalNAc-ApoB conjugate. Animals were weighed weekly and clinical observations were performed 2-3 times daily within the first 48 hrs, and at least once daily thereafter until study end. • ii. Sampling of serum, liver, and kidney tissue. […] At the relevant inter-study post-dose timepoints, 3 animals per timepoint per treatment group (6 animals in the vehicle control group in Study A) were sacrificed to collect terminal bleeds and collect relevant organs, such as liver and kidney tissues for further analyses. at end of study, the remaining 2 animals (4 in the control group in Study A) per group were sacrificed. One half of the liver and one kidney was frozen and used for tissue RNA analysis.
LDL-cholesterol was measured in mouse serum, using an LDL-cholesterol specific two-step AU480 assay kit, respectively, from Beckman Coulter, with a photometric measurement according to the manufacturer's instructions.

[4] = test system: apoB mRNA in primary human hepatocytes; assay: apoB mRNA expression analysis in primary human hepatocytes; assay type: cell-based; settings: read-out: apoB RNA levels IC50
Experimental: as §1, §2

[5] = In vivo tolerability (clinical observations, body weight); set-up: species or system C57BL/6J mice; settings: Study A; doses and regimens of Table A5
Experimental: as §3

apoB RNA in liver tissue = assay: ApoB expression analysis in liver tissue (qRT-PCR); assay type: in vivo, C57BL/6J mice; settings: for apoB RNA levels in liver, reduction compared to vehicle: Study A
Experimental: as §3
The mRNA was isolated from frozen liver tissue using TRzol® Reagent (Thermo Scientific) according to the manufacturer's instruction. Conversion into cDNA was performed using Script™ cDNA Synthesis Kit (BioRad). ApoB expression levels and levels of specific liver housekeeping genes were determined using quantitative real-time PCR assays (qRT-PCR) using iTaq™ Universal SYBRO Green Supermix (BioRad) and the Light Cycler 480 (Roche Diagnostics, Rotkreuz, Switzerland) with specific DNA primers, listed in Table A4 (Study A) and Table A7 (Study B), respectively. Analysis was done by the ΔCt method to determine apoB expression relative to 2 liver-specific housekeeping control mRNAs. Each analysis reaction was performed in triplicate.

apoB protein = assay: Serum apoB protein analysis (ELISA); assay type: in vivo, C57BL/6J mice; settings: Study B; 72 hrs; 2 mg/kg iv; vehicle 156 μg/ml
Experimental: as §3, with “Where applicable, trivalent (GalNAc)3-SO1861 (EMCH) was co-administered at 5 ml/kg in the tail vain (iv) right after the trivalent GalNAc-ApoB conjugate.” left out
ApoB protein levels in mouse serum was determined using an ApoB ELISA (ab230932, Abcam, Cambridge, UK), according to the manufacturer's instruction.

[6] = test system: primary human hepatocytes; assay: Cell viability of primary human hepatocytes; assay type: cell-based; settings: combined with 10 pM CD71-saporin
Experimental: Briefly, the MTS solution was diluted 20× in DMEM without phenol red (PAN-Biotech GmbH) supplemented with 10% FBS. The cells were washed once with 200 μL/PBS well, after which 100 μL diluted MTS solution was added/well. The plate was incubated for approximately 20-30 minutes at 37° C.

[7] = test system: apoB gene expression in HepG2 cells; assay: ApoB gene silencing (gene expression analysis); assay type: cell-based, human
Experimental: as §1, §2

[8] = test system: HSP27 gene expression in HepG2 cells; assay: HSP27 gene silencing (gene expression analysis, qPCR); assay type: cell-based, human; settings: + fixed 4000 nM SO1861-EMCH
Excerpt: as §1

[9] = test system: HSP27 gene expression in Huh7 cells; assay: as above; assay type: cell-based, human; settings: + fixed 4000 nM SO1861-EMCH
Excerpt: as §1

[10] = + 300 nM TrivalentGalNAc-SPT001
[11] = + fixed 4000 nM trivalent-GalNAc-L-SO1861 (DAR1)

(GalNAc)3-ApoB: trivalent GalNAc conjugated with ApoB antisense BNA oligonucleotide (SEQ ID NO: 2); linker type not stated (GCCTCAGTCTGCTTCGCACC; sugars from the 5' end [BNA]5 d10 [BNA]5, backbone and methylation of C not given here; further chemistry not fully specified)
lowering of apoB protein expression [1, 10]: neitherTrivalentGalNAc-ApoBBNA, northe combination ofTrivalentGalNAc-ApoBBNA and TrivalentGalNAc-SPT001 induced marked lowering | lowering of apoB protein expression ([1]; alone): neitherTrivalentGalNAc-ApoBBNA, northe combination ofTrivalentGalNAc-ApoBBNA and TrivalentGalNAc-SPT001 induced marked lowering | lowering of apoB mRNA expression [2, 10]: neither TrivalentGalNAc-ApoBBNA, nor the combination of TrivalentGalNAc-ApoBBNA and TrivalentGalNAc-SPT001 induce lowering | lowering of apoB mRNA expression ([2]; alone): neither TrivalentGalNAc-ApoBBNA, nor the combination of TrivalentGalNAc-ApoBBNA and TrivalentGalNAc-SPT001 induce lowering

CC(=O)OC1C(C)OC(OC2C(C)OC(OC(=O)[C@]34CCC(C)(C)CC3C3=CCC5[C@@]6(C)CC[C@H](OC7OC(C(=O)O)C(O)C(OC8OCC(O)C(O)C8O)C7OC7OC(CO)C(O)C(O)C7O)[C@@](C)(C=O)C6CC[C@@]5(C)[C@]3(C)C[C@H]4O)C(OC3OC(C)C(OC4OCC(O)C(OC5OCC(O)C(O)C5O)C4O)C(OC4OCC(O)C(O)C4O)C3O)C2O)C(O)C1O (some centres unmarked) [SO1832]
endosomal escape enhancing activity towards an oligonucleotide (or protein toxin) in the endosome [3]: about equally active as SO1861

ApoB #02 BNA: BNA^NC oligonucleotide 5′-GCattggtatTCA-3′ [SEQ ID NO: 12], fully phosphorothioated, murine and human sequence-compatible, apoB-targeting (GCATTGGTATTCA; sugars from the 5' end [BNANC]2 d8 [BNANC]3, all phosphorothioate, 5' {C6SH}, methylation of C not given here)
serum LDL-C reduction compared to vehicle (LDL-cholesterol; 24 hrs, 0.1 mg/kg iv): not noticeably reduced | serum LDL-C reduction compared to vehicle (LDL-cholesterol; 24 hrs, 1 mg/kg iv): not noticeably reduced | serum LDL-C reduction compared to vehicle (LDL-cholesterol; 24 hrs, 2 mg/kg iv): not noticeably reduced | serum LDL-C reduction compared to vehicle (LDL-cholesterol; 72 hrs, 2 mg/kg iv): ~50% | serum LDL-C reduction compared to vehicle (LDL-cholesterol; 336 hrs, 2 mg/kg iv): ~40% | serum LDL-C level (LDL-cholesterol; Study B, 72 hrs, 2 mg/kg iv, vehicle 4 mg/dl): 2 mg/dL | IC50 ([4]; relative ApoB #02 BNA concentration, no transfection agent): 400 nM | IC50 ([4]; transfection with RNAi-MAX): 8 nM | tolerability [5]: well tolerated | apoB RNA levels in liver, reduction compared to vehicle (apoB RNA in liver tissue; 24 hrs, 0.1 mg/kg iv): not noticeably reduced | apoB RNA levels in liver, reduction compared to vehicle (apoB RNA in liver tissue; 24 hrs, 1 mg/kg iv): ~15% | apoB RNA levels in liver, reduction compared to vehicle (apoB RNA in liver tissue; 24 hrs, 2 mg/kg iv): ~21% | apoB RNA levels in liver, reduction compared to vehicle (apoB RNA in liver tissue; 72 hrs, 2 mg/kg iv): 39% | apoB RNA levels in liver, reduction compared to vehicle (apoB RNA in liver tissue; 336 hrs, 2 mg/kg iv): 30% | apoB RNA levels in liver, % of vehicle control (apoB RNA in liver tissue; Study B, 72 hrs, 2 mg/kg iv): 53% | serum apoB protein level (apoB protein): 57 µg/mL

CC(=O)OC1C(C)OC(OC2C(C)OC(OC(=O)[C@]34CCC(C)(C)CC3C3=CCC5[C@@]6(C)CC[C@H](OC7OC(C(=O)O)C(O)C(OC8OCC(O)C(O)C8O)C7OC7OC(CO)C(O)C(O)C7O)[C@@](C)(/C=N/NC(=O)CCCCCN7C(=O)C=CC7=O)C6CC[C@@]5(C)[C@]3(C)C[C@H]4O)C(OC3OC(C)C(OC4OCC(O)C(OC5OC(CO)C(O)C(O)C5O)C4O)C(O)C3O)C2O)C(O)C1OC1OCC(O)C(O)C1O (some centres unmarked) [SO1861-EMCH]
increase of potency (factor) when cell viability of liver cells is considered [6]: ~10

trivalent-GalNAc-L-ApoBBNA: ApoBBNA (SEQ ID NO: 2) conjugated to trivalent-GalNAc, labile conjugation (GCCTCAGTCTGCTTCGCACC; sugars from the 5' end [BNA]5 d10 [BNA]5, backbone and methylation of C not given here; further chemistry not fully specified)
IC50 ([7]; + fixed 4000 nM SO1861-EMCH): 10 nM | IC50 [7, 11]: 50 nM | IC50 [2]: 700 nM

trivalent-GalNAc-S-HSP27BNA: HSP27BNA (SEQ ID NO: 1) conjugated to trivalent-GalNAc, stable conjugation (GGCACAGCCAGTGGCG; sugars from the 5' end [BNANC]3 d10 [BNANC]3, backbone and methylation of C not given here; further chemistry not fully specified)
IC50 [8]: 0.1 nM | IC50 [9]: 3 nM

trivalent-GalNAc-L-HSP27BNA: HSP27BNA (SEQ ID NO: 1) conjugated to trivalent-GalNAc, labile conjugation (GGCACAGCCAGTGGCG; sugars from the 5' end [BNANC]3 d10 [BNANC]3, backbone and methylation of C not given here; further chemistry not fully specified)
IC50 [8]: 0.1 nM | IC50 [9]: 3 nM

trivalent-GalNAc-S-ApoBBNA: ApoBBNA (SEQ ID NO: 2) conjugated to trivalent-GalNAc, stable conjugation (GCCTCAGTCTGCTTCGCACC; sugars from the 5' end [BNA]5 d10 [BNA]5, backbone and methylation of C not given here; further chemistry not fully specified)
IC50 ([7]; + fixed 4000 nM SO1861-EMCH): 10 nM | IC50 [7, 11]: 50 nM | IC50 [2]: 700 nM
